# Measured values reported in US20210290537A1, “LIPOSOMAL ELINAFIDE FORMULATIONS AND USES THEREOF” (MALLINCKRODT LLC, priority 2016, published 2021).
# Like-named read-outs stand apart in the source and are kept apart here.
# Tests used:
# [1] = phase I studies / clinical development, background; cited from earlier work
# [2] = test system: HT-29 human colorectal adenocarcinoma cells; assay: In vitro IC50 cytotoxicity, Alamar Blue cell viability; type: cell-based
# Procedure: HT-29 human colorectal adenocarcinoma cells (#HTB-38, ATCC, Manassas, Va.) were plated in 96-well tissue culture plates (Costar #3595) at 5×10^3 cells/well in a final volume of 0.1 mL of 10% fetal bovine serum in McCoy's 5A (#10-050-CV, Mediatech, Manassas, Va.). Defined fetal bovine serum was obtained from HyClone (#SH30070.03, lot #AWB96395, Logan, Utah). Plates containing cells were incubated at 37° C. in 5% CO2 in humidified air for 24 hr. The selected initial cell plating density was chosen based upon the approximate doubling time of the human tumor cell line.
# Test compounds were diluted from stock solutions to 2.2 mmol/L in Dulbecco's modified phosphate-buffered saline (DPBS; Mediatech, Inc., lot #21031339, Manassas, Va.), then serially diluted three-fold in DPBS to generate a nine point dose-response curve. Ten microliters of diluted test compounds were added to wells in triplicate to achieve the desired final concentration of test compounds. Plates containing cells with and without added test compounds were returned to incubation as described above.
# For the two hour cytotoxicity assessment, medium was removed after two hours of drug exposure and replaced with 0.1 mL/well culture medium, and cells were incubated for an additional 70 hours as above.
# For the twenty-four hour cytotoxicity assessment, medium was removed after one day of drug exposure and replaced with 0.1 mL/well culture medium, and cells were returned to incubation for an additional 48 hours. Subsequently, cell viability was assessed using Alamar Blue. For this purpose, media was removed by pipetting from cultured cells and replaced with 0.1 mL/well of 10% (v/v) Alamar Blue (#BUFO12A, AbD Serotec, Raleigh, N.C.) diluted in the appropriate cell culture media. Plates were then returned to incubation as before for appropriate color development, between two to four hours.
# Fluorescence of individual plate wells was measured at 545 nm/590 nm (excitation/emission) using a BioTek Synergy4 microplate reader. Cell viability was calculated as a percentage of measured fluorescence obtained relative to cells treated with culture media alone. IC50 values (μmol/L) were determined with the mean of triplicate values using nonlinear regression analysis and a four-parameter logistic model.
# [3] = MTD of liposomal and free naphthalimides and azonifides; type: in vivo
# [4] = Single-dose muscle myopathy study, 14-day observation; type: in vivo; conditions: for Myopathy / Survival: rats, 14 days
# Text: Rats that loss greater than 20% of its body weight were dropped from the study. […]
# in vivo = conditions: rat, plasma, 20 mg/kg
# [5] = Table 7, read-out: 2 hr Tx (IC50)
# [6] = Table 7, read-out: 24 hr Tx (IC50)
# [7] = Table 7, read-out: 72 hr Tx (IC50)
# [8] = Homo sapiens, 2 h, Table 7, read-out: 2 hr Tx (IC50)
# [9] = Homo sapiens, 24 h, Table 7, read-out: 24 hr Tx (IC50)
# [10] = Homo sapiens, 48 h, Table 7, read-out: 48 hr Tx (IC50)
# [11] = mouse, in vivo, male athymic nude mice, read-out: MTD
compound,measurement,setting,value
CN(C)CCN1C(=O)c2cccc3cc([N+](=O)[O-])cc(c23)C1=O [mitonafide],dose-limiting toxicity in clinical study,[1],dose limiting toxicity
"CN(C)CCN1C(=O)c2cccc3cc(NC(N)=O)cc(c23)C1=O [UNBS-5162 Free, UNBS-5162]",IC50,[2]; [5],> 100000 nM
same,IC50,[2]; [6],24800 nM
same,IC50,[2]; [7],31300 nM
same,MTD,[3]; male athymic nude mice,45 mg/kg
same,dose-limiting toxicity in clinical study,[1],dose limiting toxicity
"O=C1c2cccc3cccc(c23)C(=O)N1CCNCCCNCCN1C(=O)c2cccc3cccc(c23)C1=O [Free Elinafide, Elinafide]",muscle myopathy in treated rats,"[4]; administration at MTD, single dose",significant muscle myopathy
same,Myopathy,"[4]; 25 mg/kg, F",1/3
same,Survival,"[4]; 25 mg/kg, F",3/3
same,Myopathy,"[4]; 25 mg/kg, M",2/3
same,Survival,"[4]; 25 mg/kg, M",3/3
same,Myopathy,"[4]; 35 mg/kg, F",3/3
same,Survival,"[4]; 35 mg/kg, F",3/3
same,Survival,"[4]; 35 mg/kg, M",0/3
same,AUC,in vivo,4.7 ng·h/mL
same,Cmax,in vivo,1.4 ng/mL
same,Vd,in vivo,204000
same,half-life,in vivo,53.5 h
same,dose-limiting toxicity in clinical study,[1],cumulative dose-limiting neuro-muscular toxicity and myelosuppression
C[C@H](CNCCNC[C@@H](C)N1C(=O)c2cccc3cc([N+](=O)[O-])cc(c23)C1=O)N1C(=O)c2cccc3cc([N+](=O)[O-])cc(c23)C1=O [DMP-840],dose-limiting toxicity in clinical study,[1],dose limiting toxicity
Ethonafide [Ethonafide Free],IC50,[2]; [5],751 nM
same,IC50,[2]; [6],189 nM
same,IC50,[2]; [7],388 nM
same,MTD,"[3]; mouse, in vivo",15 mg/kg
"CN(C)CCN1C(=O)c2cccc3cc(N)cc(c23)C1=O [Amonafide Free, Amonafide]",IC50,[2]; [8],90300 nM
same,IC50,[2]; [9],34200 nM
same,IC50,[2]; [10],15700 nM
same,MTD,[3]; [11],45 mg/kg
same,dose-limiting toxicity in clinical study,[1],high variability and dose-limiting toxicity
"CN(C)CCN1C(=O)c2cccc3cc4ccccc4c(c23)C1=O [Azonifide Free, Azonifide]",IC50,[2]; [8],1170 nM
same,IC50,[2]; [9],256 nM
same,IC50,[2]; [10],283 nM
same,IC50,"[2]; Homo sapiens, 72 h, Table 7, read-out: 72 hr Tx (IC50)",386 nM
same,MTD,[3]; [11],10 mg/kg
